The record followed here is patent US12575768B2, “Analyte sensor antimicrobial configurations and adhesives” (Abbott Diabetes Care, Inc., priority 2018, dated 2026).

The structures appear in SMILES notation.

The test system of this assay is gram-positive bacteria strains associated with common skin flora and wound infection. Nature of the assay: modified Kirby-Bauer disk diffusion assay, overall conclusion. The assay is classed as cell-based. The note with it: conclusion from zone of inhibition measurements of Table 1. The method, then:
Example 3: […] Testing of Silver-Based Antimicrobial Quality. In this example, sensors membranes comprising the silver-based antimicrobial compounds of Example 2 (tested in quadruplicate for each of the sensors in Example 2) and the Control of Example 2 were evaluated […] against a variety of gram-positive bacteria strains associated with common skin flora and wound infection, and which were nosocomial-derived using a modified Kirby-Bauer disk diffusion assay for antibiotic susceptibility testing. The bacteria used for evaluation were Staphylococcus aureus (MRSA) (ATCC #33591), Staphylococcus epidermidis (ATCC #12228), Enterococcus faecalis (ATCC #4082), and Streptococcus pyogenes (ATCC #19615). Each were cultured on Tryptic Soy Agar, except for S. pyogenes, which were cultured on Blood Agar.

For the molecule `[Cl][Ag]` [silver chloride], the “antimicrobial properties (in words)” value is “demonstrate antimicrobial properties”.

With `[Ag][I]` [silver iodide], the “antimicrobial properties (in words)” value is given as “demonstrate antimicrobial properties”.
